The values below come from patent US4892813A, “Method for the determination of the enzymatic activity of convertase” (Centre National de la Recherche Scientifique, priority 1987, dated 1990).

Type in all cases: biochemical, rat
The test system of test [1] is somatostatin convertase. The experiment in a line: Conversion of iodine-125-labeled peptide I by brain extracts, specific activity (% of peptide II generated). The conditions noted are these: molecular sieve fraction, peptide I (20,000 cpm), 2 hours, % of starting materials. Here is the method:
(§1) Male Wistar rats (100-120 g) were sacrificed by quick decapitation and the cerebral cortex was removed immediately. The fresh dissected tissue was homogenized in a Potter Elvehjem apparatus in a buffer solution of phosphate (pH 7.4) at a concentration of 50 mM and potassium chloride at a concentration of 200 mM (5 ml of buffer per cortex).
(§2) The extract was then centrifuged at 3000×g for 15 minutes and the supernatant was filtered on a Sephadex G-150 column in 0.25M Tris-HCl (pH 7).
(§3) The proteolytic activities were tested in the following way. The peptide I labeled with iodine 125 (20,000 cpm), dissolved in 10 μl of 250 mM Tris-HCl (pH 7), was incubated at 37° C. with an aliquot either of crude extract of rat cerebral cortex or of fractions derived from gel filtration or derived from ion exchange chromatography (final volume of 300 μl in 0.25M Tris-HCl (pH 7)).
(§4) 50 μl samples of the mixture were taken at different times during the reaction and the reaction was stopped by the addition of 600 μl of CM-52 resin in 30 mM ammonium acetate (pH 6) (1:10, vol./vol.). The mixture was then centrifuged at 10,000×g for 30 seconds on a Beckman microcentrifuge. […] After the second washing by elution at each of its saline concentrations, the iodinated products retained on the resin were counted.
(§5) The results were calculated as follows: [formula] where the specific activity represents the percentage of peptides II generated, the undesirable activity represents the percentage of Asn-^125 I-Tyr(NH2) generated, t is the total cpm in 50 μl of the mixture, x1 is the cpm found after washing with the 30 mM ammonium acetate, x2 is the cpm found after washing with the 100 mM ammonium acetate, and y1 and y2 are the cpm values found respectively after the 30 mM and 100 mM washings of the resin with the peptide I by itself.
(§6) The extracts were obtained from three regions of the brain and were fractionated by filtration on a molecular sieve. A 50 μl aliquot corresponding to an activity peak was incubated with the peptide I (20,000 cpm) for 2 hours and the products were analyzed by ion exchange.

In another test the test system is undesirable activity. The experiment in a line: Conversion of iodine-125-labeled peptide I by brain extracts, undesirable activity (% of Asn-^125 I-Tyr(NH2) generated). The conditions noted are these: molecular sieve fraction, peptide I (20,000 cpm), 2 hours, % of starting materials. On the procedure: as §1, §2, §3, §4, §5, §6
Test [2] concerns somatostatin convertase. The experiment in a line: Competition of peptides with iodinated peptide I in the enzymatic conversion by somatostatin convertase. The conditions noted are these: 1 μl of each peptide or 2 μg of somatostatin 28; ^125 I peptide I (30,000 cpm), pH 7, 37° C., 2 hours; 0% = maximum conversion of peptide I to peptide II. On the procedure: The ability of several analogous peptides to compete with the peptide I in the enzymatic conversion was evaluated by means of competition experiments. The results given in the table which follows indicate that either the peptide of 28 AA (S-28) or the noniodinated substrate of II AA (deiodinated peptide I) competed effectively (75% and 85% respectively) with the iodinated peptide I. It is interesting to observe that simple replacement of Lys with Arg in the dibasic doublet (cleavage site) produced a peptide III, which competed with the iodinated substrate (peptide I) with an efficacy of only 30%.
The enzyme prepared from the Sephadex G150 column was incubated in a
mixture containing either 1 μl of each of the peptides described above
or 2 μg of somatostatin 28 and ^125 IPeptide I (30,000 cpm) in a
buffer solution of TrisHCl (pH 7) at 37° C. for 2 hours. 0%
inhibition corresponds to a maximum conversion of the peptide I to the […]

Where no end group is shown, it is not given here.

In the case of “Ala-Gly-Ala-Lys-Asn-Tyr(NH2)* [Peptide II]”, the “% of products generated, Peptide II labeled with 125I” value is recorded as 7% with somatostatin convertase [1] (Hypothalamus extract), 18% in the test with somatostatin convertase [1] (Neocortex extract) and 20% with somatostatin convertase [1] (Pituitary gland extract).
Take Asn-^125 I-Tyr(NH2): the figures for the “% of products generated, Asn-^125 I-Tyr(NH2)” value in the test with undesirable activity (Hypothalamus extract), in the test with undesirable activity (Neocortex extract) and with undesirable activity (Pituitary gland extract) were 90%, 40% and 37%, respectively.
With PRERKAGAKNY-NH2 [De^125 IPeptide I], the “% inhibition of the conversion activity (competition with iodinated peptide I)” value with somatostatin convertase [2] amounted to 85%.
As for “Somatostatin 28: direct precursor of somato 14, a peptide consisting of 28 AA [reference compound]”, the “% inhibition of the conversion activity (competition with iodinated peptide I)” value in the test with somatostatin convertase [2] came to 75%.
